Experimental data: ChEMBL document CHEMBL1158132, “26,27-cyclosterols and other polyoxygenated sterols from a marine sponge Topsentia sp” (2006)
Converted amounts (≈) assume the structure as drawn.

Key:
Assay type in all cases: functional
Settings in all cases: read-out: ED50 (the source's name)
SK-OV-3 = test: Cytotoxicity against human SKOV3 cells
SK-MEL-2 = test: Cytotoxicity against human SK-MEL-2 cells
HCT-15 = test: Cytotoxicity against human HCT-15 cells
XF498 = test: Cytotoxicity against human XF498 cells
A549 = test: Cytotoxicity against human A549 cells

Row | SMILES | EC50 (SK-OV-3) | EC50 (SK-MEL-2) | EC50 (HCT-15) | EC50 (XF498) | EC50 (A549)
1 | CC(C)C/C=C/[C@@H](C)[C@H]1CC[C@H]2C3=C(CC[C@]12C)[C@@]1(C)CC[C@H](O)CC1=CC3=O | > 30 µg/mL | > 30 µg/mL | 38.4 µg/mL (≈ 96.8 µM) | > 30 µg/mL | > 30 µg/mL
2 | CC(C)[C@H](C)/C=C/[C@@H](C)[C@H]1CC[C@H]2C3=C(CC[C@]12C)[C@@]1(C)CC[C@H](O)C[C@@]12O[C@H]2[C@H]3O [TOPSENTISTEROL B4] | 7.8 µg/mL (≈ 18.2 µM) | 11.3 µg/mL (≈ 26.4 µM) | 14.1 µg/mL (≈ 32.9 µM) | 19 µg/mL (≈ 44.3 µM) | 9.7 µg/mL (≈ 22.6 µM)
3 | CC(C)=C[C@@H](C)[C@H]1CC[C@@H]2[C@]1(C)CC[C@H]1[C@]23C=C[C@]2(CCCC[C@]12C)OO3 | 19.4 µg/mL (≈ 52.4 µM) | 25.9 µg/mL (≈ 69.9 µM) | 21.4 µg/mL (≈ 57.7 µM) | > 30 µg/mL | 30 µg/mL (≈ 81 µM)
4 | C[C@H](CC[C@@H](C)[C@H]1CC[C@H]2C3=CC(=O)[C@@]4(O)C[C@@H](O)CC[C@]4(C)[C@@]3(O)CC[C@]12C)[C@@H]1C[C@H]1C [TOPSENTISTEROL C1] | 4.2 µg/mL (≈ 9.16 µM) | 11.3 µg/mL (≈ 24.6 µM) | 6.1 µg/mL (≈ 13.3 µM) | 17.7 µg/mL (≈ 38.6 µM) | 7.7 µg/mL (≈ 16.8 µM)
5 | CO[C@@H]1C=C2[C@@H]3CC[C@H]([C@H](C)/C=C/[C@@H](C)C(C)C)[C@@]3(C)CC[C@]2(O)[C@@]2(C)CC[C@H](O)C[C@]12O [TOPSENTISTEROL C3] | 7.8 µg/mL (≈ 16.9 µM) | 11.5 µg/mL (≈ 25 µM) | 4.3 µg/mL (≈ 9.33 µM) | 4.7 µg/mL (≈ 10.2 µM) | 5.6 µg/mL (≈ 12.2 µM)
6 | CCC(C)/C=C/[C@@H](C)[C@H]1CC[C@@H]2[C@]1(C)CC=C1[C@]23C=C[C@]2(CCCC[C@]12C)OO3 (stereo not given in full) [TOPSENTISTEROL A3] | 7.1 µg/mL (≈ 17.9 µM) | 4.6 µg/mL (≈ 11.6 µM) | 4.2 µg/mL (≈ 10.6 µM) | 6.2 µg/mL (≈ 15.6 µM) | 5.4 µg/mL (≈ 13.6 µM)
7 | CC(C)[C@@H](C)/C=C/[C@@H](C)[C@H]1CC[C@@H]2[C@]1(C)CC[C@H]1[C@]23C=C[C@]2(CCCC[C@]12C)OO3 | 17.8 µg/mL (≈ 43.1 µM) | 19.4 µg/mL (≈ 47 µM) | 21.1 µg/mL (≈ 51.1 µM) | 24.7 µg/mL (≈ 59.9 µM) | 17.5 µg/mL (≈ 42.4 µM)
8 | CC(C)[C@H](C)/C=C/[C@@H](C)[C@H]1CCC2=C3[C@H](O)[C@@H]4O[C@@]45C[C@@H](O)CC[C@]5(C)[C@H]3CC[C@@]21C [TOPSENTISTEROL B5] | 7.9 µg/mL (≈ 18.4 µM) | 5.5 µg/mL (≈ 12.8 µM) | 18.4 µg/mL (≈ 42.9 µM) | > 30 µg/mL | 13.9 µg/mL (≈ 32.4 µM)
9 | CC(C)[C@@H](C)/C=C/[C@@H](C)[C@H]1CCC2=C3[C@H](O)[C@@H]4O[C@@]45C[C@@H](O)CC[C@]5(C)[C@H]3CC[C@@]21C | 17.9 µg/mL (≈ 41.8 µM) | > 30 µg/mL | 17.9 µg/mL (≈ 41.8 µM) | > 30 µg/mL | > 30 µg/mL
10 | CC(C)C/C=C/[C@@H](C)[C@H]1CC[C@@H]2[C@]1(C)CC=C1[C@]23C=C[C@]2(CCCC[C@]12C)OO3 | 6.3 µg/mL (≈ 15.9 µM) | 5.2 µg/mL (≈ 13.1 µM) | 4.7 µg/mL (≈ 11.9 µM) | 11.4 µg/mL (≈ 28.7 µM) | 6.3 µg/mL (≈ 15.9 µM)
11 | COc1cccc2c1C(=O)c1c(O)c3c(c(O)c1C2=O)C[C@@](O)(C(=O)CO)C[C@@H]3O[C@H]1C[C@H](N)[C@H](O)[C@H](C)O1 [DOXORUBICIN] | 0.19 µg/mL (≈ 0.35 µM) | 0.08 µg/mL (≈ 0.147 µM) | 0.13 µg/mL (≈ 0.239 µM) | 0.07 µg/mL (≈ 0.129 µM) | 0.08 µg/mL (≈ 0.147 µM)
12 | CC(C)[C@H](C)/C=C/[C@@H](C)[C@H]1CC[C@H]2C3=C(CC[C@]12C)[C@@]1(C)CC[C@H](O)CC1=CC3=O [TOPSENTISTEROL D3] | > 30 µg/mL | 24.5 µg/mL (≈ 59.7 µM) | 33.6 µg/mL (≈ 81.8 µM) | > 30 µg/mL | > 30 µg/mL
